# Experimental data: patent publication US20090215895A1, “Therapeutic and carrier molecules” (PEPLIN BIOLIPIDS PTY LTD, priority 2004, published 2009)
# Tested on: NFκB p65
# Experiment: TNF-stimulated nuclear translocation of NFκB in HUVEC
# Assay type: cell-based, human
# Details: 20 μmol/l
# Experimental: FIG. 17 is a representation showing (A) the effect of MP3 (β-oxa 23:4n-6) and DHA on TNF-induced degradation of IκBα in HUVEC. Cells were pre-treated with the fatty acids (20 μmol/l) for 30 min and then stimulated with TNF (125 U/ml) for 10 min. After cell lysis the proteins were analyzed by Western blots using anti-IκBα antibodies. (B) The effects of β-oxa-23:4n-6 on TNF-induced activation of transcriptional factor, NFκB in HUVEC. Cells were pre-treated with β-oxa-23:4n-6 (20 μmol/l) for 30 min and then stimulated with TNF for 2 hr. After cell lysis, nuclear fractions were prepared, nuclear proteins separated by SDS PAGE (12% w/v gel), transferred to nitrocellulose and probed with an anti-NFκB p65 antibody (Santa Cruz). […] (C) The effect of β-oxa 23:4n-6 on TNF-stimulated activation of IKK. Cells were pre-treated with β-oxa 23:4n-6 (20 μmol/l) for 30 min and then stimulated with TNF for 5 min. After cell lysis IKK was immunoprecipitated with anti-IKKα antibody and kinase activity determined. […]
# Proteins (50 μg) were separated by SDS PAGE (12% w/v gel), transferred to nitrocellulose and probed with an anti-NFκB p65 or anti-IκBα antibody (Santa Cruz Biotech, Santa Cruz, Calif.). Immunocomplexes were detected by enhanced chemiluminescence (Hii et al, 1998 supra).
compound,measurement,setting,value
"CCCCC/C=C\C/C=C\C/C=C\C/C=C\CCCCOCC(=O)O [MP3, β-oxa-23:4n-6]",Reduction of TNF-stimulated nuclear accumulation of NFκB,"30 min, TNF 2 hr, mean±SEM, three experiments",66±2%
same,Translocation of NFκB to the nucleus,TNF,inhibition of translocation of NFκB to the nucleus
